Here are results for 13 compounds from PMC11643225, “Novel Benzimidazole-Endowed Chalcones as α-Glucosidase and α-Amylase Inhibitors: An Insight into Structural and Computational Studies” (Molecules, 2024).

The target of one data set is yeast α-glucosidase. Nature of the data set: yeast α-glucosidase inhibition assay (pNPG substrate). Format: biochemical. The conditions noted are these: yeast enzyme, 37 °C. As for the experimental part: (§1) The in vitro enzyme inhibition assays for the two enzymes, i.e., α-glucosidase and α-amylase, were performed according to the previous studies.
The yeast α-glucosidase inhibition assay was performed using pNPG as substrate. An amount of 100 µL of enzyme was then added to the mixture, and the reaction was incubated at 37 °C for 10 min. After adding 0.5 mM pNPG solution, the reaction continued at 37 °C for 20 min. The enzyme activity was determined by measuring the absorbance of the liberated p-nitrophenol at 405 nm using a microplate spectrophotometer. The results were expressed as a percentage of α-glucosidase inhibition, calculated using the formula “Inhibition (%) = (A control − A sample)/A control × 100”. The final results of the enzyme inhibition assay are represented as IC50 values which refers to the concentration required to block 50% of α-glucosidase activity under the test conditions.

The target in data set [1] is T1, type-VI B porcine pancreatic α-amylase (Sus scrofa, UniProt P00690).
T1 construct: performed using type-VI B porcine pancreatic α-amylase, with starch as a substrate; from tissue; host or cells: porcine pancreas
T1 sequence (P00690 16-511): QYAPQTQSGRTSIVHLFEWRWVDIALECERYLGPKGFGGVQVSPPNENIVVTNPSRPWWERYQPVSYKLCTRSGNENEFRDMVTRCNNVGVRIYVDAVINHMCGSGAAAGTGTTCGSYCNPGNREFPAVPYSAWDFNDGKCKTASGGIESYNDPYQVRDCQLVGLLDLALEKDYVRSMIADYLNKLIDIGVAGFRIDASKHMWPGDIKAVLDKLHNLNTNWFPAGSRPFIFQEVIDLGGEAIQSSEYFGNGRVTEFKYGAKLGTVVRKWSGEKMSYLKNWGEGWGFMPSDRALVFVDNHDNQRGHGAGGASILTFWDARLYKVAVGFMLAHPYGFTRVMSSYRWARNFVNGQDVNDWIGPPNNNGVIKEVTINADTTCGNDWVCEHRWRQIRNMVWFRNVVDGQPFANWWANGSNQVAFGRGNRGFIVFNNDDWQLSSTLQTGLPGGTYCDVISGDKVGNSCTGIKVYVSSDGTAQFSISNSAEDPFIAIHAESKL
Nature of the data set: α-amylase inhibition assay (starch substrate, DNS reagent). Format: biochemical. The conditions noted are these: porcine pancreatic enzyme, 25 °C, read-out: IC50 (mean ± SD) α-Amylase (converted). As for the experimental part: as §1
The α-amylase inhibition activity was performed using type-VI B porcine pancreatic α-amylase, with starch as a substrate. The enzyme was dissolved in sodium phosphate buffer and the test compound was added at different concentrations. […] The reaction was terminated by adding a DNS reagent and kept in a boiling water bath for 5 min. The resulting mixture was diluted and absorbance was measured at 540 nm using a microplate spectrophotometer.

For another data set, the system named is HEK293 cells. Format: cell-based. The conditions noted are these: for cytotoxicity against HEK293 cell lines (in words): MTT, 48 h, 250, 500 and 1000 µg/mL, even at the highest concentration (1000 µg/mL). The protocol:
The Human Embryonic Kidney (HEK-293) cell lines were cultured in Dulbecco’s Modified Eagle Medium (DMEM) supplemented with 10% fetal bovine serum (FBS). The cells were maintained at 37 °C in a humidified atmosphere of 5% CO2. The adherent cells were grown to 70–80% confluency and then harvested by trypsinization (0.25%). The test compounds were dissolved in DMSO and used for all the experiments. DMSO (0.1%) was used as vehicle control and cells cultured in a complete medium without compound served as control.
Briefly, 5 × 10^3 cells (HEK293 cells) were seeded and allowed to adhere overnight. […] Post 48 h, the cells were exposed to MTT (5 mg/mL in phosphate-buffered saline). The formazan crystals were dissolved in DMSO and the absorption was measured at 570 nm using a microplate reader (Tecan Spark, Switzerland). The percentage viability of the cells was determined.

Usually IC50 stands for the concentration that inhibits the measured activity by half. In general, melting point refers to the temperature, or range, at which the solid turns liquid.

SMILES strings stand for the structures. Entries after “also recorded” stand apart in the source; their conditions may differ.

Turning to `COc1ccc(-c2nc3cc(C(=O)/C=C/c4ccccc4Cl)ccc3n2C)cc1OC` [Compound 7a], the melting point lay within 148 to 150 °C. The “IC50 (mean ± SD) α-Glucosidase” value against yeast α-glucosidase was determined as 30.23 ± 0.14 µg·h/mL. For the same compound, in data set [1], the IC50 is 92.7 µM.
Regarding `COc1ccc(-c2nc3cc(C(=O)/C=C/c4ccc(C)cc4)ccc3n2C)cc1OC` [Compound 7b], on yeast α-glucosidase, the “IC50 (mean ± SD) α-Glucosidase” value is 32.10 ± 0.96 i µg/mL. For the same compound, the 50% inhibitory concentration (IC50) in data set [1] is 81 µM. Further, the “cytotoxicity against HEK293 cell lines (in words)” value (shortened to “cytotoxicity”) in the data set on HEK293 cells is listed as “negligible cytotoxicity”.
Compound `COc1ccccc1/C=C/C(=O)c1ccc2c(c1)nc(-c1ccc(OC)c(OC)c1)n2C` [Compound 7c] displayed a melting point of 159 to 161 °C. For the same compound, the “IC50 (mean ± SD) α-Glucosidase” value against yeast α-glucosidase stood at 25.21 ± 0.13 c µg/mL. For the same compound, the IC50 in data set [1] is 91.9 µM.
Take `COc1ccc(/C=C/C(=O)c2ccc3c(c2)nc(-c2ccc(OC)c(OC)c2)n3C)cc1` [Compound 7d]: the melting point is 98 to 100 °C. Also, the “IC50 (mean ± SD) α-Glucosidase” value against yeast α-glucosidase was found to be 631.7 ± 12.5 µg·h/mL. Further, the IC50 in data set [1] is 85 µM.
Consider `COc1ccc(/C=C/C(=O)c2ccc3c(c2)nc(-c2ccc(OC)c(OC)c2)n3C)cc1OC` [Compound 7e], for which, at yeast α-glucosidase, the “IC50 (mean ± SD) α-Glucosidase” value is 23.88 ± 0.55 b µg/mL. In addition, the IC50 in data set [1] is 75.1 µM. Moreover, the “cytotoxicity” value in the data set with HEK293 cells was “negligible cytotoxicity”.
The compound `COc1ccc(-c2nc3cc(C(=O)/C=C/c4cc(OC)c(OC)c(OC)c4)ccc3n2C)cc1OC` [Compound 7f] gave a melting point of 127 to 129 °C. In addition, on yeast α-glucosidase, the “IC50 (mean ± SD) α-Glucosidase” value was 28.75 ± 0.12 f µg/mL. In addition, in data set [1], the IC50 was 76.4 µM.
Turning to `COc1cc(-c2nc3cc(C(=O)/C=C/c4ccccc4Cl)ccc3n2C)cc(OC)c1OC` [Compound 7g], the melting point was in the range of 183 to 184 °C. The “IC50 (mean ± SD) α-Glucosidase” value on yeast α-glucosidase was 29.28 ± 0.35 g µg/mL. In data set [1], the IC50 is 61.7 µM.
For `COc1cc(-c2nc3cc(C(=O)/C=C/c4ccc(C)cc4)ccc3n2C)cc(OC)c1OC` [Compound 7h] the same measures were 168 to 170 °C, 36.22 ± 0.58 l µg/mL and 68.9 µM.
On to `COc1ccccc1/C=C/C(=O)c1ccc2c(c1)nc(-c1cc(OC)c(OC)c(OC)c1)n2C` [Compound 7i], for which the melting point lay in the range of 176 to 178 °C. For the same compound, on yeast α-glucosidase, the “IC50 (mean ± SD) α-Glucosidase” value is 33.20 ± 0.60 J·µg/mL. Besides, the half-inhibitory concentration (IC50) in data set [1] is 52.8 µM.
The matching figures for `COc1ccc(/C=C/C(=O)c2ccc3c(c2)nc(-c2cc(OC)c(OC)c(OC)c2)n3C)cc1` [Compound 7j]: 142 to 144 °C, 27.21 ± 0.36 e µg/mL and 85.6 µM.
The matching figures for `COc1ccc(/C=C/C(=O)c2ccc3c(c2)nc(-c2cc(OC)c(OC)c(OC)c2)n3C)cc1OC` [Compound 7k]: 137 to 139 °C, 29.30 ± 0.21 g µg/mL and 84.4 µM.
As to `COc1cc(/C=C/C(=O)c2ccc3c(c2)nc(-c2cc(OC)c(OC)c(OC)c2)n3C)cc(OC)c1OC` [Compound 7l, (E)-1-(1-methyl-2-(3,4,5-trimethoxyphenyl)-1H-benzo[d]imidazol-5-yl)-3-(3,4,5-trimethoxyphenyl)prop-2-en-1-one], on yeast α-glucosidase, the “IC50 (mean ± SD) α-Glucosidase” value was 22.45 ± 0.36 a µg/mL. Besides, in data set [1], the concentration for half-maximal inhibition (IC50) was 39.5 µM. In addition, the “cytotoxicity” value with HEK293 cells is reported as “negligible cytotoxicity; also recorded: without exerting toxicity”.
On to `CO[C@@]12[C@H](COC(N)=O)C3=C(C(=O)C(C)=C(N)C3=O)N1C[C@@H]1N[C@@H]12` [Mitomycin, reference compound], for which the cell death entry in the data set with HEK293 cells (HEK293, MTT, 25 µg/mL) is on record as “around 60%”.
